Laboratory results taken from publication PMC11995724, “Antibiotic target discovery by integrated phenotypic and activity-based profiling of electrophilic fragments” (Cell chemical biology, 2025).
Converted amounts (≈) assume the structure as drawn.

Legend:
in vitro = settings: human, hek293t cells
S. aureus FabH = target: T1, S. aureus FabH (Staphylococcus aureus, UniProt Q6GAU3); experiment: in vitro targeting of purified protein (method not given); assay type: binding
T1 construct: recombinant, N-terminal His-tag, pET28a(+), E. coli BL21(DE3)
T1 sequence (Q6GAU3 1-313): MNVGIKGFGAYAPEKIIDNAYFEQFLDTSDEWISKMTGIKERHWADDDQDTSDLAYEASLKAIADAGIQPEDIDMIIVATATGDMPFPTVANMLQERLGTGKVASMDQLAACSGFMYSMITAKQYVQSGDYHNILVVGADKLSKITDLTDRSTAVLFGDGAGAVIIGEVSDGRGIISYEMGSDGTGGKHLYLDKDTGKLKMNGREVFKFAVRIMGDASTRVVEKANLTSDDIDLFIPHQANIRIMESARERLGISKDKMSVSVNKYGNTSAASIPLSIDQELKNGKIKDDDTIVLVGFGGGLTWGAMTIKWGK
Source text: in vitro targeting of purified protein (method not told in the main text) on S. aureus FabH | The S. aureus FabH […] can also be targeted by 10-F05 in vitro

[1] = test system: T2, Staphylococcus aureus SAD30; experiment: microbe, parasite or virus in culture; design: species or system bacteria in LB, TSB or NB; broth microdilution MIC, OD600, lowest concentration with no growth
T2 construct: SAD30
Procedure: The minimum inhibitory concentrations (MICs) of compounds were measured using the broth microdilution method.[10] One stab using 10 µL tip from bacteria glycerol stock was inoculated into 5 mL of LB supplemented with selection antibiotics (Kanamycin for Keio collections and chloramphenicol for ASKA collections), and the culture was incubated at 37°C with shaking overnight. The overnight culture was diluted 1:10000 (~5 × 10^5 CFU/mL) and then dispensed in to a 96-well plate containing serial dilutions of indicated compounds in DMSO. The plate was incubated at 37°C for 16–20 h with shaking at 80 rpm and the OD600 was measured using Cytation 5 plate reader (BioTek). MIC was determined as the lowest concentration for which no bacterial growth was observed. LB was used as the growth media for all the bacteria strains unless otherwise mentioned. For S. aureus and A. baumannii strains, tryptic soy broth (TSB, BD, DF0370-17-3) was used as the growth media instead of LB. For P. aeruginosa and K. pneumoniae strains, nutrient broth (NB, RPI, N15100) was used as growth media. All MIC measurements were performed in at least biological duplicates.

Sf_PdxY = target: T3, Sf_PdxY (Shigella flexneri, UniProt Q83KY1); experiment: in-gel fluorescence, competition with 5-TMRIA labelling; assay type: binding; settings: covalent; 1.5 uM protein in PBS, 1 h, 22 °C
T3 construct: gene pdxY; recombinant, N-terminal His-tag, pET28a(+), E. coli BL21(DE3), Ni-NTA and Superdex 75
T3 sequence (Q83KY1 1-287): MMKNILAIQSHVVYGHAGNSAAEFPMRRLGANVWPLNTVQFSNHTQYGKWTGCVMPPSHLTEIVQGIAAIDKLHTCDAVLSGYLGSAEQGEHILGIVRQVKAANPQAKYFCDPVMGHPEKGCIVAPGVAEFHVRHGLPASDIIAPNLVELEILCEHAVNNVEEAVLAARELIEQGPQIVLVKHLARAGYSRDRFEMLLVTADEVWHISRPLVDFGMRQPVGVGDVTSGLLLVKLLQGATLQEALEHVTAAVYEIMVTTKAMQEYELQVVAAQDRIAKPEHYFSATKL

Sf_FabH = target: T4, Sf_FabH (Shigella flexneri, UniProt Q83RS8); experiment: as above; assay type: binding; settings: covalent; 1.5 uM protein in PBS, 1 h, 22 °C
T4 construct: gene fabH; recombinant, N-terminal His-tag, pET28a(+), E. coli BL21(DE3), Ni-NTA and Superdex 75
T4 sequence (Q83RS8 1-317): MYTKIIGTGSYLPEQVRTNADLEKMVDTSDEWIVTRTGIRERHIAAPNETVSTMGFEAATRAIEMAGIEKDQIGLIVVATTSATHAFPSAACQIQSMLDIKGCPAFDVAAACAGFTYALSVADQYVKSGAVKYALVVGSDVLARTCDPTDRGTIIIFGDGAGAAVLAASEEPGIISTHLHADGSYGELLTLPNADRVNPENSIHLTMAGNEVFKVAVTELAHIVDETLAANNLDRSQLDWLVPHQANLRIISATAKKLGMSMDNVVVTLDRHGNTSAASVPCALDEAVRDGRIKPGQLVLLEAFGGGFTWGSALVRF

With `O=C(CCl)c1cn(-c2ccc(F)cc2)nn1` [10-F05] the viability at 48 h, 25 µM (in vitro) was 89.9%, the “in vitro targeting of purified protein (method not given)” value (S. aureus FabH) was “The S. aureus FabH [...] can also be targeted by 10-F05 in vitro” and the MIC [1] was 10 µM (≈ 2.4 µg/mL). The “in-gel fluorescence, competition with 5-TMRIA labelling” value (Sf_PdxY) was “preincubation with 10-F05 resulted in a dose-dependent decrease in 5-TMRIA labeling of these proteins” and the “in-gel fluorescence, competition with 5-TMRIA labelling” value (Sf_FabH) was “preincubation with 10-F05 resulted in a dose-dependent decrease in 5-TMRIA labeling of these proteins”.
Compound `O=C(CCl)c1ccc(CC(=O)N2CCOCC2)s1` [10-H06, 2-chloro-1-{5-[2-(morpholin-4-yl)-2-oxoethyl]thiophen-2-yl}ethan-1-one] has a viability at 48 h, 25 µM (in vitro) of 71.7%.
For `C=CC(=O)Nc1cc(NC(=O)C2CCC2)ccc1F` [2-E10, N-[4-fluoro-3-(prop-2-enamido)phenyl]cyclobutanecarboxamide], the viability at 48 h, 25 µM (in vitro) was 86.7%.
`CC(C)c1ccc(-c2cc(NC(=O)CCl)n(-c3ccccc3)n2)cc1` [4-C16, 2-chloro-N-{1-phenyl-3-[4-(propan-2-yl)phenyl]-1H-pyrazol-5-yl}acetamide] gave a viability at 48 h, 25 µM (in vitro) of -0.013%.
Work on `N#CC(=Cc1cn(-c2ccccc2)nc1-c1ccccc1Cl)C(N)=O` [8-N18, 3-[3-(2-chlorophenyl)-1-phenyl-1H-pyrazol-4-yl]-2-cyanoprop-2-enamide] yielded a viability at 48 h, 25 µM (in vitro) of 91.5%.
Compound `CC(Cl)C(=O)NC1CCN(CC(=O)Nc2ccccc2)CC1` (stereo not drawn) [7-E13, 2-chloro-N-{1-[(phenylcarbamoyl)methyl]piperidin-4-yl}propanamide] has a viability at 48 h, 25 µM (in vitro) of 85.2%.
Work on `C=CC(=O)N1CCC(C(=O)N[C@H]2CCC[C@H]2O)CC1` [2-K04, N-[(1S,2R)-2-hydroxycyclopentyl]-1-(prop-2-enoyl)piperidine-4-carboxamide] yielded a viability at 48 h, 25 µM (in vitro) of 84.2%.
Work on `C=CCNC(=O)C(C#N)=CC=Cc1ccccc1` [9-J08, 2-cyano-5-phenyl-N-(prop-2-en-1-yl)penta-2,4-dienamide] yielded a viability at 48 h, 25 µM (in vitro) of 96.5%.
In the case of `Cc1cc(C2(NC(=O)C(C)Cl)CCOCC2)on1` (stereo not drawn) [7-O13, 2-chloro-N-[4-(3-methyl-1,2-oxazol-5-yl)oxan-4-yl]propanamide], the viability at 48 h, 25 µM (in vitro) is reported as 95.5%.
Work on `CC(c1cccs1)N(C)C(=O)CCl` (stereo not drawn) [6-M21, 2-chloro-N-methyl-N-[1-(thiophen-2-yl)ethyl]acetamide] yielded a viability at 48 h, 25 µM (in vitro) of 0.384%.
With `C=CC(=O)Nc1c(C)ccn2ncnc12` [2-M08, N-{7-methyl-[1,2,4]triazolo[1,5-a]pyridin-8-yl}prop-2-enamide] the viability at 48 h, 25 µM (in vitro) was 92%.
With `CC(Cl)C(=O)N1CC(Cc2cccs2)C1` (stereo not drawn) [7-I04, 2-chloro-1-{3-[(thiophen-2-yl)methyl]azetidin-1-yl}propan-1-one] the viability at 48 h, 25 µM (in vitro) was 88.8%.
Work on `O=C(CCl)NC(Cc1ccccc1)C(=O)O` (stereo not drawn) [6-C13, 2-(2-chloroacetamido)-3-phenylpropanoic acid] yielded a viability at 48 h, 25 µM (in vitro) of 97.4%.
With `CCC1CN(CCn2cccn2)CCN1C(=O)C(C)Cl` (stereo not drawn) [7-F07, 2-chloro-1-{2-ethyl-4-[2-(1H-pyrazol-1-yl)ethyl]piperazin-1-yl}propan-1-one] the viability at 48 h, 25 µM (in vitro) was 98.7%.
`O=C(CCl)NC(c1ccccc1)c1nccs1` (stereo not drawn) [5-M13, 2-chloro-N-[phenyl(1,3-thiazol-2-yl)methyl]acetamide] showed a viability at 48 h, 25 µM (in vitro) of 2.38%.
`C=CC(=O)N[C@H]1CCCC[C@H]1c1ccnn1C` (racemic) [2-G18, rac-N-[(1R,2S)-2-(1-methyl-1H-pyrazol-5-yl)cyclohexyl]prop-2-enamide] showed a viability at 48 h, 25 µM (in vitro) of 103%.
For `COc1cc(OC)c(C(=O)CCl)c(OC)c1` [10-L04, 2-chloro-1-(2,4,6-trimethoxyphenyl)ethan-1-one], the viability at 48 h, 25 µM (in vitro) was 80.7%.
Work on `O=C(CCl)N1N=C(c2ccco2)CC1c1cccc(Cl)c1` (stereo not drawn) [5-M17, 2-chloro-1-[5-(3-chlorophenyl)-3-(furan-2-yl)-4,5-dihydro-1H-pyrazol-1-yl]ethan-1-one] yielded a viability at 48 h, 25 µM (in vitro) of 0.403%.
Work on `O=C(CCl)NCC(=O)Nc1ccc(F)c(F)c1F` [4-D18, 2-chloro-N-{[(2,3,4-trifluorophenyl)carbamoyl]methyl}acetamide] yielded a viability at 48 h, 25 µM (in vitro) of 2.12%.
In the case of `CC(Cl)C(=O)NC1CCN(S(C)(=O)=O)C1` (stereo not drawn) [7-I15, 2-chloro-N-(1-methanesulfonylpyrrolidin-3-yl)propanamide], the viability at 48 h, 25 µM (in vitro) is reported as 94.9%.
`Cc1csc(CN(CC2CCCO2)C(=O)C(C)Cl)n1` (stereo not drawn) [7-E09, 2-chloro-N-[(4-methyl-1,3-thiazol-2-yl)methyl]-N-[(oxolan-2-yl)methyl]propanamide] showed a viability at 48 h, 25 µM (in vitro) of 94.1%.
`COc1ccc(C=C(C#N)C(=O)Nc2ccccc2C)cc1` [8-P07, 2-cyano-3-(4-methoxyphenyl)-N-(2-methylphenyl)prop-2-enamide] gave a viability at 48 h, 25 µM (in vitro) of 114%.
`CN(C)S(=O)(=O)c1cccc(NC(=O)CCl)c1` [4-J08, 2-chloro-N-[3-(dimethylsulfamoyl)phenyl]acetamide] gave a viability at 48 h, 25 µM (in vitro) of 0.946%.
Compound `Cn1cc(C=C(C#N)C(=O)Nc2ccccc2F)c(-c2ccncc2)n1` [9-L15, 2-cyano-N-(2-fluorophenyl)-3-[1-methyl-3-(pyridin-4-yl)-1H-pyrazol-4-yl]prop-2-enamide] has a viability at 48 h, 25 µM (in vitro) of 130%.
In the case of `C=CC(=O)Nc1ccccc1Cl` [1-O10, N-(2-chlorophenyl)prop-2-enamide], the viability at 48 h, 25 µM (in vitro) is reported as 63%.
With `N#CC(=Cc1ccc2ccccc2c1)C(=O)NCc1ccccc1` [9-N11, N-benzyl-2-cyano-3-(naphthalen-2-yl)prop-2-enamide] the viability at 48 h, 25 µM (in vitro) was 123%.
